Test results published in publication PMC3561959 (Nucleic Acids Research, 2012).

Tests used:
RPA = RPA (Homo sapiens, UniProt P27694); test: Helix destabilization assay; assay type: biochemical; settings: EMSA, dsDNA probe, 200 µM of each compound
DBD-F^MBP = DBD-F^MBP (Homo sapiens, UniProt P27694); assay type: binding; settings: competitive titration, fluorescence anisotropy
DBD-F^MBP, sequence (P27694 1-168): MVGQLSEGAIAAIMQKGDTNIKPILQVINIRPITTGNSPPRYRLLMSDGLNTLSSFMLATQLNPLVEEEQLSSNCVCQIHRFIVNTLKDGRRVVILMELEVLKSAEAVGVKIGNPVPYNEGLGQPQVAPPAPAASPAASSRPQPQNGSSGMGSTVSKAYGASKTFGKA

RPA, sequence (P27694 whole entry): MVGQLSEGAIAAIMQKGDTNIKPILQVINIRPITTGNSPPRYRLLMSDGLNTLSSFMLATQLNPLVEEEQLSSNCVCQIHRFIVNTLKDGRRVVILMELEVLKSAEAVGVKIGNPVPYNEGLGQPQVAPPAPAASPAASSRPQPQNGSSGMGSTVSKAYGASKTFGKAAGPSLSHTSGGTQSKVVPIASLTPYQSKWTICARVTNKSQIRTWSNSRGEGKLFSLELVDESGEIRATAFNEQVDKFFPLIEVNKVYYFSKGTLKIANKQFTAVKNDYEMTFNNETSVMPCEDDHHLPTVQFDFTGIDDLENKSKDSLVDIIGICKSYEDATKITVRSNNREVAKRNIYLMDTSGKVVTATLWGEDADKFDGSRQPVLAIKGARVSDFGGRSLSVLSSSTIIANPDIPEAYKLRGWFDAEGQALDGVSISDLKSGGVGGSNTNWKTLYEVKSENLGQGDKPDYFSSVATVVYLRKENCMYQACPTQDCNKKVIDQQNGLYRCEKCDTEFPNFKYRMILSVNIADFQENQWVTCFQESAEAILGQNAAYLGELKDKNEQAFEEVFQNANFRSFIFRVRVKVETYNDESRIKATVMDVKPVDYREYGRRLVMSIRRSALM
RPA, sequence (P15927 whole entry partner): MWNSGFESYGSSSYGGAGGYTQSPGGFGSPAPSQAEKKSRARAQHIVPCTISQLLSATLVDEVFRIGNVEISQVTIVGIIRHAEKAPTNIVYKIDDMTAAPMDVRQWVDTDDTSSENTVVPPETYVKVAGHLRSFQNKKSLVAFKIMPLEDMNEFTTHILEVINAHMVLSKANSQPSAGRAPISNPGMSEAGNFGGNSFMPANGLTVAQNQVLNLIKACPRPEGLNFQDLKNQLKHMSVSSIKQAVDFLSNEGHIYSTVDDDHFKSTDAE
RPA, sequence (P35244 whole entry partner): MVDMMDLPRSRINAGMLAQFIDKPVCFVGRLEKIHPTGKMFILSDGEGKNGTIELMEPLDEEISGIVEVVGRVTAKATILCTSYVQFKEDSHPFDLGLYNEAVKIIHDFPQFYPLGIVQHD

inhibition of helix destabilization by RPA (RPA)	competition with X-rhodamine-labelled p53TAD2 for binding to DBD-F^MBP (DBD-F^MBP)	SMILES
no effect	no evidence of binding	O=C(O)CCC(=O)O [succinic acid]
no effect	no evidence of binding	O=C(O)C1CCC(C(=O)O)CC1 (stereo not shown) [1,4-cyclohexanedicarboxylic acid]
